Test results published in the supplement of paper PMC11208160.

Assay: recombinant barcode read abundance after kanamycin selection (control-corrected) (log10(CPM+1)); higher = more efficient recombination; sequences stand for … in AGTGCAGAGAAAATCGGCCAGTTTTCTCTGCCTGCAGTCCGCATGCCGT…AGATTTATGCAGCGGACTGCCTTTCTCCCAAAGTGATAAACCGGACAGTATCATGGACCGGTTTTCCCGGTAATCCGTATTTGCAAGGTTGGTTTCACT; site = the 11-nt target
Method in brief: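 Recombination efficiency was calculated from barcode counts at recombinant junctions, normalized to counts per million, averaged and corrected by the control. Each value is given as log10(CPM+1). The constructs were Gibson-cloned oligos (promoter, target, barcode, J23119-driven first 104 bridge RNA bases) in a vector with the remaining 73 bp and a T7-inducible recombinase, co-electroporated into E. coli with a donor plasmid and plated in duplicate on chloramphenicol/ampicillin LB agar (control) or chloramphenicol/ampicillin/kanamycin with 0.1 mM IPTG.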
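Note: IS621 recombinase and bridge RNA in Escherichia coli cells.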

Sequence | recombinant barcode read abundance (log10)
TACTTAACTTGGGTTCTAACCTGTTGCCT (site TACTGAACTAG) | 0.0656
TACTTAACTTGGGTTCTAACCTGTTGCCT (site TACTTAACTAG) | 0.134
TACTTCCCTTGGGTTCTAACCTGTTGCGT (site TACTTCCCTAC) | 1.87
TACTTCCCTTGGGTTCTAACCTGTTGCGT (site TACTTCTCTAG) | 0.0128
TACTTCTCTTGGGTTCTAACCTGTTGCCT (site TACTTCCCTAC) | 0.211
TACTTCTCTTGGGTTCTAACCTGTTGCCT (site TACTTCTCTAG) | 0.764
TACTTGCCTTGGGTTCTAACCTGTTGCCT (site TAATTGCCTAG) | 0.0842
TACTTGCCTTGGGTTCTAACCTGTTGCCT (site TACTTGCCTAG) | 0.804
TACTTGCCTTGGGTTCTAACCTGTTGCCT (site TAGTTGCCTAG) | 0.653
TACTTGCCTTGGGTTCTAACCTGTTGCCT (site TATTTGCCTAG) | 0.182
TAGAACTCTTGGGTTCTAACCTGTTGCCA (site TAGAACTCTAG) | 0.254
TAGAACTCTTGGGTTCTAACCTGTTGCCA (site TAGAACTCTCG) | 0.23
TAGAACTCTTGGGTTCTAACCTGTTGCCA (site TAGAACTCTGG) | 0.0926
TAGAACTCTTGGGTTCTAACCTGTTGCCA (site TAGAACTCTTG) | 0.193
TAGAAGACTTGGGTTCTAACCTGTTGCTA (site TAGAAGACTAA) | 0.115
TAGAAGACTTGGGTTCTAACCTGTTGCTA (site TAGAAGACTCA) | 0.487
TAGAAGACTTGGGTTCTAACCTGTTGCTA (site TAGAAGACTGA) | 0.155
TAGAAGACTTGGGTTCTAACCTGTTGCTA (site TAGAAGACTTA) | 1.55

Sequence | recombinant barcode read abundance (log10)
TAGAAGACTTGGGTTCTAACCTGTTGCTG (site TAGAAGACTAA) | 0.128
TAGAAGACTTGGGTTCTAACCTGTTGCTG (site TAGAAGACTCA) | 2.38
TAGAAGACTTGGGTTCTAACCTGTTGCTG (site TAGAAGACTGA) | 0.315
TAGAAGACTTGGGTTCTAACCTGTTGCTG (site TAGAAGACTTA) | 0.639
TAGAAGCCTTGGGTTCTAACCTGTTGCTA (site TAGAAGCCTTA) | 0.463
TAGAAGCCTTGGGTTCTAACCTGTTGCTA (site TAGAAGGCTTA) | 0.21
TAGAAGGCTTGGGTTCTAACCTGTTGCAT (site TAGAAGGCTAA) | 0.162
TAGAAGGCTTGGGTTCTAACCTGTTGCAT (site TAGAAGGCTAC) | 0.0752
TAGAAGGCTTGGGTTCTAACCTGTTGCAT (site TAGAAGGCTAG) | 0.161
TAGAAGGCTTGGGTTCTAACCTGTTGCAT (site TAGAAGGCTAT) | 1.97
TAGAATCCTTGGGTTCTAACCTGTTGCAT (site TAGAATCCTAT) | 0.104
TAGAATCCTTGGGTTCTAACCTGTTGCAT (site TAGAATCCTCT) | 0.102
TAGAATCCTTGGGTTCTAACCTGTTGCAT (site TAGAATCCTGT) | 0.0579
TAGAATCCTTGGGTTCTAACCTGTTGCAT (site TAGAATCCTTT) | 0.241
TAGAATGCTTGGGTTCTAACCTGTTGCCT (site TAGAATGCTAA) | 0.133
TAGAATGCTTGGGTTCTAACCTGTTGCCT (site TAGAATGCTAG) | 0.921
TAGACATCTTGGGTTCTAACCTGTTGCTC (site TAGACATCTGA) | 0.323
TAGACATCTTGGGTTCTAACCTGTTGCTC (site TAGCCATCTGA) | 0.0147
